Experimental data: patent US10280149B2, “Therapeutic compounds and uses thereof” (GENENTECH, INC., priority 2015, dated 2019)
Structures can show the parent of a compound that is named as a salt.

Target: Full length KDM2B (Homo sapiens (Human), UniProt Q8NHM5)
Assay: KDM2B TR-FRET assay for determining inhibitor IC50
Assay type: biochemical
Settings: TR-FRET (HTRF), biotin-H3K36me2 peptide substrate, 2-OG 0.3 μM or 6 μM
Excerpt: KDM2B TR-FRET Assay for Determining Inhibitor IC50
The KDM2B TR-FRET Assay described above represents an additional embodiment of the invention.

Sequence of Full length KDM2B (Q8NHM5 whole entry): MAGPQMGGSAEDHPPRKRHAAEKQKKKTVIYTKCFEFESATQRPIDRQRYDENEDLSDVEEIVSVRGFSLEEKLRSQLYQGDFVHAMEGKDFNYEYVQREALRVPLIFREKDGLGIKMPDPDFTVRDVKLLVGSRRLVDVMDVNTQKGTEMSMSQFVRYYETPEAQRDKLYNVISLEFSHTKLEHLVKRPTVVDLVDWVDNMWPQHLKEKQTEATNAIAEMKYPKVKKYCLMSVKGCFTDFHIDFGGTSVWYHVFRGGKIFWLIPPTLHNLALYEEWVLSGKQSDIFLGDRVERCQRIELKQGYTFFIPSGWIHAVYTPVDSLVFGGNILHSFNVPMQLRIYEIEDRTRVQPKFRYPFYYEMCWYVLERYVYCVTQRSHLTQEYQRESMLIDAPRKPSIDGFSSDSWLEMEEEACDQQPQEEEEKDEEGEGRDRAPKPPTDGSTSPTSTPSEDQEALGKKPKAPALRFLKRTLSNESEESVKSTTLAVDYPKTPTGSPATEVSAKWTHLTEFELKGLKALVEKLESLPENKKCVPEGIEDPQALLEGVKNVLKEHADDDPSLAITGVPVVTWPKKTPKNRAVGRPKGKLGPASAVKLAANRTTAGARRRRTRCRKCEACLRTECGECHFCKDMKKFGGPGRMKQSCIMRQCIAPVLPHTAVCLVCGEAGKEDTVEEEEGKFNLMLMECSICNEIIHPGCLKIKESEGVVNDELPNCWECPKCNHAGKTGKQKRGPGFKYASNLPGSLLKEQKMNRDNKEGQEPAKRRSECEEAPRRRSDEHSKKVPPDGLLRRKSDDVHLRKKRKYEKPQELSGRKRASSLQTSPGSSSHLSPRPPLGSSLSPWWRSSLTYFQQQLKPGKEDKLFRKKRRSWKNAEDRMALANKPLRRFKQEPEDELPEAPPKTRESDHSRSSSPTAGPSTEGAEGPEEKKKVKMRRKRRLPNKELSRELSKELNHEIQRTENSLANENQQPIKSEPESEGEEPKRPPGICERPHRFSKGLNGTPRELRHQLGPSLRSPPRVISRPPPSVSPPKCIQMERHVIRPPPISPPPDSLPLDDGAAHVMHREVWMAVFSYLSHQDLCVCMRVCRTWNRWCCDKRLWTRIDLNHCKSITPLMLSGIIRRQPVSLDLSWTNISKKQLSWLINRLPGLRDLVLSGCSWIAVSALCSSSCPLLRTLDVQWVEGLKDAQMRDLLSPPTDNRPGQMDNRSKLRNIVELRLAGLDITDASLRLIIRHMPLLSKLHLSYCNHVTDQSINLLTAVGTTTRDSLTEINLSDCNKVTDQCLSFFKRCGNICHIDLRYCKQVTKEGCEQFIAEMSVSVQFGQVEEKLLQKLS

Structure (SMILES)	IC50
CC[C@@H]1CCN(C2CCC2)C[C@H]1C(=O)c1ccc2c(CC#N)c(OC)ccc2c1 (stereo in doubt) [Example 183a, 2-(6-(1-cyclobutyl-4-ethylpiperidine-3-carbonyl)-2-methoxynaphthalen-1-yl)acetonitrile]	55.2 nM
O=C(c1cc2ccccc2s1)C1CCCN(CC2CC2)C1 (stereo not drawn) [Example 120, Benzo[b]thiophen-2-yl(1-(cyclopropylmethyl)piperidin-3-yl)methanone]	389 nM
COc1ccc2cc(C(=O)C3CN(CC4CC4)CCC3C(F)(F)F)ccc2c1 (single isomer, unassigned) [Example 138b, (1-(cyclopropylmethyl)-4-(trifluoromethyl)piperidin-3-yl)(6-methoxynaphthalen-2-yl)methanone]	4800 nM
O=C(c1cc(F)c2ccccc2c1)C1CCCN(CC2CC2)C1 (stereo not drawn) [Example 26, [1-(cyclopropylmethyl)-3-piperidyl]-(4-fluoro-2-naphthyl)methanone]	551 nM
COc1ccc2cc(C(=O)C3CCCN(C4CCOCC4)C3)ccc2c1 (stereo not drawn) [Example 6, (6-methoxy-2-naphthyl)-(1-tetrahydropyran-4-yl-3-piperidyl)methanone]	2600 nM
COc1ccc2cc(C(=O)C3CN(CC4CC4)CCC3c3ccccc3)ccc2c1 (stereo not drawn) [Example 145, (1-(cyclopropylmethyl)-4-phenylpiperidin-3-yl)(6-methoxynaphthalen-2-yl)methanone]	312 nM
CCCN1CCCC(C(=O)c2ccccc2OC)C1 (stereo not drawn) [Example 99, (2-methoxyphenyl)-(1-propyl-3-piperidyl)methanone]	5500 nM
COc1ccc2cc(C(=O)[C@@H]3CN(C4CCC4)CC[C@@H]3c3ccccc3)ccc2c1 (single isomer, unassigned) [Example 141a, (1-cyclobutyl-4-phenylpiperidin-3-yl)(6-methoxynaphthalen-2-yl)methanone]	1000 nM
NCc1cc(C(=O)C2CCCN(CC3CC3)C2)cc2ccccc12 (stereo not drawn) [Example 37, [4-(aminomethyl)-2-naphthyl]-[1-(cyclopropylmethyl)-3-piperidyl]methanone]	620 nM
COc1ccc2cc(C(=O)C3CN(C4CCC4)CCC3c3ccccc3)ccc2c1 (single isomer, unassigned) [Example 141b, (1-cyclobutyl-4-phenylpiperidin-3-yl)(6-methoxynaphthalen-2-yl)methanone]	98.7 nM
COc1ccc2cc(C(=O)C3CN(CC4CC4)CCC3OC)ccc2c1 (single isomer, unassigned) [Example 146b, (1-(cyclopropylmethyl)-4-methoxypiperidin-3-yl)(6-methoxynaphthalen-2-yl)methanone]	129 nM
O=C(c1cccc(-c2ccccc2)c1)C1CCCN(CC2CC2)C1 (stereo not drawn) [Example 25, [1-(cyclopropylmethyl)-3-piperidyl]-(3-phenylphenyl)methanone]	1400 nM
NC(=O)c1cc(C(=O)C2CCCN(CC3CC3)C2)cc2ccccc12 (stereo not drawn) [Example 48, 3-[1-(cyclopropylmethyl)piperidine-3-carbonyl]naphthalene-1-carboxamide]	180 nM
CCCN1CC[C@@H](C)[C@H](C(=O)c2ccc3cc(C#N)ccc3c2)C1 (stereo in doubt) [Example 163b, 6-(4-methyl-1-propylpiperidine-3-carbonyl)-2-naphthonitrile]	45.4 nM
COc1ccc2cc(C(=O)C3CCCN(CC4CC4)C3)ccc2n1 (stereo not drawn) [Example 122, (1-(cyclopropylmethyl)piperidin-3-yl)(2-methoxyquinolin-6-yl)methanone]	205 nM
COc1ccc2cc(C(=O)C3CN(C4CCC4)CCN3CC3CC3)ccc2c1 (stereo not drawn) [Example 192, [4-cyclobutyl-1-(cyclopropylmethyl)piperazin-2-yl]-(6-methoxy-2-naphthyl)methanone]	385 nM
COc1ccc2cc(C(=O)[C@H]3CN(C4CCC4)CC[C@H]3CC(C)C)ccc2c1CC#N (stereo in doubt) [Example 185b, 2-(6-(1-cyclobutyl-4-isobutylpiperidine-3-carbonyl)-2-methoxynaphthalen-1-yl)acetonitrile]	2 nM
CC1CCN(C2CCCC2)CC1C(=O)c1ccc2cc(C#N)ccc2c1 (stereo not drawn) [Example 162a, 6-(1-cyclopentyl-4-methylpiperidine-3-carbonyl)-2-naphthonitrile]	814 nM
COc1ccc2cc(C(=O)C3CN(C4CCC4)CCN3Cc3cccc(C(F)(F)F)c3)ccc2c1 (stereo not drawn) [Example 198, [4-cyclobutyl-1-[[3-(trifluoromethyl)phenyl]methyl]piperazin-2-yl]-(6-methoxy-2-naphthyl)methanone]	302 nM
COc1ccc2cc(C(=O)[C@]3(O)CCCN(CC4CC4)C3)ccc2c1 (stereo in doubt) [Example 158b, (1-(cyclopropylmethyl)-3-hydroxypiperidin-3-yl)(6-methoxynaphthalen-2-yl)methanone]	11500 nM
O=C(c1ccc2c(c1)CCCCC2)C1CCCN(C2CCC2)C1 (stereo not drawn) [Example 132, (1-cyclobutylpiperidin-3-yl)(6,7,8,9-tetrahydro-5H-benzo[7]annulen-2-yl)methanoe]	55.3 nM

Structure (SMILES)	IC50
CCC[C@H]1CCN(C2CCC2)C[C@@H]1C(=O)c1ccc2c(CC#N)c(OC)ccc2c1 (stereo in doubt) [Example 184d, 2-(6-(1-cyclobutyl-4-propylpiperidine-3-carbonyl)-2-methoxynaphthalen-1-yl)acetonitrile]	263 nM
COc1ccc(C(=O)C2CCCN(C3CCC3)C2)c(OC)c1 (stereo not drawn) [Example 5, (1-cyclobutyl-3-piperidyl)-(2,4-dimethoxyphenyl)methanone]	2500 nM
CNC(=O)c1cc(C(=O)C2CCCN(C3CCC3)C2)cc2ccccc12 (stereo not drawn) [Example 42, 3-(1-cyclobutylpiperidine-3-carbonyl)-N-methyl-naphthalene-1-carboxamide]	243 nM
CC1CCN(CC2CC2)CC1C(=O)c1ccc2c(O)cccc2c1 (single isomer, unassigned) [Example 151b, (1-(cyclopropylmethyl)-4-methylpiperidin-3-yl)(5-hydroxynaphthalen-2-yl)methanone]	39.5 nM
COc1ccc(C(=O)[C@@H]2CCCN(CC3CC3)C2)cc1 (stereo in doubt) [Example 110b, (1-(cyclopropylmethyl)piperidin-3-yl)(4-methoxyphenyl)methanone]	5300 nM
Cc1ccc2cc(C(=O)C3CCCN(C4CCC4)C3)ccc2c1 (stereo not drawn) [Example 165, (1-cyclobutylpiperidin-3-yl)(6-methylnaphthalen-2-yl)methanone hydrochloride]	163 nM
CC[C@H]1CCN(C2CCC2)C[C@H]1C(=O)c1ccc2c(CC#N)c(OC)ccc2c1 (stereo in doubt) [Example 183d, 2-(6-(1-cyclobutyl-4-ethylpiperidine-3-carbonyl)-2-methoxynaphthalen-1-yl)acetonitrile]	1.53 nM
Cn1ccc2ccc(C(=O)C3CCCN(CC4CC4)C3)cc21 (stereo not drawn) [Example 119, (1-(cyclopropylmethyl)piperidin-3-yl)(1-methyl-1H-indol-6-yl)methanone]	2300 nM
O=C(c1cccc2ccccc12)C1CCCN(CC2CC2)C1 (stereo not drawn) [Example 126, (1-(cyclopropylmethyl)piperidin-3-yl)(naphthalen-1-yl)methanone]	3800 nM
COc1ccc2cc(C(=O)[C@H]3C[C@@H](C)CN(CC4CC4)C3)ccc2c1 (single isomer, unassigned) [Example 139a, (1-(cyclopropylmethyl)-5-methylpiperidin-3-yl)(6-methoxynaphthalen-2-yl)methanone]	333 nM
COc1ccc2cc(C(=O)[C@H]3CN(CC4CC4)CC[C@H]3C)ccc2c1 (single isomer, unassigned) [Example 137c, (1-(cyclopropylmethyl)-4-methylpiperidin-3-yl)(6-methoxynaphthalen-2-yl)methanone]	1100 nM
CCCN1CCCC(C(=O)c2ccc3cc(OC)ccc3c2)C1 (stereo not drawn) [Example 18, (6-methoxy-2-naphthyl)-(1-propyl-3-piperidyl)methanone]	161 nM
O=C(c1cccc(Oc2ccccc2)c1)[C@H]1CCCN(CC2CC2)C1 [Example 28, [(3S)-1-(cyclopropylmethyl)-3-piperidyl]-(3-phenoxyphenyl)methanone]	1700 nM
O=C(c1cnc2ccccc2c1)C1CCCN(CC2CC2)C1 (stereo not drawn) [Example 125, (1-(cyclopropylmethyl)piperidin-3-yl)(quinolin-3-yl)methanone]	489 nM
Cc1ccc(-c2ccc(C(=O)C3CCCN(CC4CC4)C3)cc2)cc1 (stereo not drawn) [Example 34, [1-(cyclopropylmethyl)-3-piperidyl]-[4-(p-tolyl)phenyl]methanone]	402 nM
Cc1cccc2ccc(C(=O)C3CCCN(C4CCCC4)C3)cc12 (stereo not drawn) [Example 61, (1-cyclopentyl-3-piperidyl)-(8-methyl-2-naphthyl)methanone]	174 nM
CCCC1CCN(C2CCC2)CC1C(=O)c1ccc2cc(OC)ccc2c1 (single isomer, unassigned) [Example 140d, (1-cyclobutyl-4-propylpiperidin-3-yl)(6-methoxynaphthalen-2-yl)methanone]	9.96 nM
COc1ccc2cc(C(=O)[C@@H]3CCCN(C4CCCC4)C3)ccc2c1 [Example 9, [(3R)-1-cyclopentyl-3-piperidyl]-(6-methoxy-2-naphthyl)methanone]	3000 nM
CCC[C@@H]1CCN(C2CCC2)C[C@@H]1C(=O)c1ccc2c(CC#N)c(OC)ccc2c1 (stereo in doubt) [Example 184a, 2-(6-(1-cyclobutyl-4-propylpiperidine-3-carbonyl)-2-methoxynaphthalen-1-yl)acetonitrile]	77.4 nM
N#Cc1cc(C(=O)C2CCCN(C3CCCC3)C2)cc2ccccc12 (stereo not drawn) [Example 45, 3-(1-cyclopentylpiperidine-3-carbonyl)naphthalene-1-carbonitrile]	267 nM
COc1ccc2cc(C(=O)[C@H]3CCCN(C4CCC4)C3)ccc2c1CC#N (stereo in doubt) [Example 179a, 2-(6-(1-cyclobutylpiperidine-3-carbonyl)-2-methoxynaphthalen-1-yl)acetonitrile]	5.65 nM
